Results from patent publication US11919886B2, “4,9-dioxo-4,9-dihydronaphtho[2,3-B]furan-3-carboxamide derivatives and uses thereof for treating proliferative diseases and infectious diseases” (Academia Sinica, priority 2016, dated 2024).
≈ marks a conversion by molar mass, not a printed value. Where two headings read alike, the source gives them in different places.

Tests used:
[1] = system: Staphylococcus epidermidis; test: MIC, broth micro dilution method; format: cell-based
[2] = system: Streptococcus infantarius subsp. infantarius; test: MIC, broth micro dilution method; format: cell-based; conditions: strain ATCC BAA-102, S. bovis
[3] = system: Enterococcus faecium; test: MIC, broth micro dilution method; format: cell-based
[4] = system: Pseudomonas aeruginosa; test: MIC, broth micro dilution method; format: cell-based
[5] = system: Streptococcus gallolyticus subsp. pasteurianus; test: MIC, broth micro dilution method; format: cell-based; conditions: strain ATCC43144, S. bovis
[6] = system: Breast Cancer Cells (MDA-MB231); test: Cell viability by Cell-TiterGlo; format: cell-based; conditions: Homo sapiens, MDA-MB-231, 48 h, two days, read-out: % of the activities in the presence of ~10 μM compound, Breast Cancer Cells (MDA-MB231)
Description: (§1) Compound 1 and its analogues shown in Table 6 below were tested for their activities on cancer cells and bacterial cells using assays described herein. H1975, MDA-MB231, and MCF7 cells were incubated in the presence of the compounds in cell growth medium containing 10% fetal bovine serum for two days in a mammalian cell culture incubatoe. Cell viability were monitored by using Cell-TiterGlo. Staphylococcus aureus and Escherichia coli were incubated in the presence of the compounds in Muller-Hinton broth for 16-24 hours in a 37° C. incubator. Bacterial growth was monitored by using Alamar Blue (Invitrogen).

[7] = system: Lung Cancer Cells (H1975); test: Cell viability by Cell-TiterGlo; format: cell-based; conditions: Homo sapiens, NCI-H1975, 48 h, two days, read-out: % of the activities in the presence of ~10 μM compound, Lung Cancer Cells (H1975)
Description: as §1

[8] = system: Breast Cancer Cells (MCF); test: Cell viability by Cell-TiterGlo; format: cell-based; conditions: Homo sapiens, 48 h, two days, read-out: % of the activities in the presence of ~10 μM compound, Breast Cancer Cells (MCF)
Description: as §1

[9] = system: Klebsiella pneumoniae; test: MIC, broth micro dilution method; format: cell-based
[10] = system: Staphylococcus aureus (MSSA, MRSA); test: Disc diffusion method, inhibition zones; format: cell-based; conditions: for zone of inhibition at 5 µg/disc: Staphylococcus aureus, 5 μg
[11] = biological target: T1, MCM2 (Homo sapiens, UniProt P49736); test: Chromatin-bound MCM2 after double thymidine block (immunoblotting); format: cell-based; conditions: H1975, 4.5 hour, 6 hour and 9 hour treatment
T1 construct: The MCM2 proteins were pulled down by incubating the H1975 lysate with compound 1-conjugated magnetic beads; endogenous in cells; host or cells: H1975
T1 sequence (P49736 whole entry): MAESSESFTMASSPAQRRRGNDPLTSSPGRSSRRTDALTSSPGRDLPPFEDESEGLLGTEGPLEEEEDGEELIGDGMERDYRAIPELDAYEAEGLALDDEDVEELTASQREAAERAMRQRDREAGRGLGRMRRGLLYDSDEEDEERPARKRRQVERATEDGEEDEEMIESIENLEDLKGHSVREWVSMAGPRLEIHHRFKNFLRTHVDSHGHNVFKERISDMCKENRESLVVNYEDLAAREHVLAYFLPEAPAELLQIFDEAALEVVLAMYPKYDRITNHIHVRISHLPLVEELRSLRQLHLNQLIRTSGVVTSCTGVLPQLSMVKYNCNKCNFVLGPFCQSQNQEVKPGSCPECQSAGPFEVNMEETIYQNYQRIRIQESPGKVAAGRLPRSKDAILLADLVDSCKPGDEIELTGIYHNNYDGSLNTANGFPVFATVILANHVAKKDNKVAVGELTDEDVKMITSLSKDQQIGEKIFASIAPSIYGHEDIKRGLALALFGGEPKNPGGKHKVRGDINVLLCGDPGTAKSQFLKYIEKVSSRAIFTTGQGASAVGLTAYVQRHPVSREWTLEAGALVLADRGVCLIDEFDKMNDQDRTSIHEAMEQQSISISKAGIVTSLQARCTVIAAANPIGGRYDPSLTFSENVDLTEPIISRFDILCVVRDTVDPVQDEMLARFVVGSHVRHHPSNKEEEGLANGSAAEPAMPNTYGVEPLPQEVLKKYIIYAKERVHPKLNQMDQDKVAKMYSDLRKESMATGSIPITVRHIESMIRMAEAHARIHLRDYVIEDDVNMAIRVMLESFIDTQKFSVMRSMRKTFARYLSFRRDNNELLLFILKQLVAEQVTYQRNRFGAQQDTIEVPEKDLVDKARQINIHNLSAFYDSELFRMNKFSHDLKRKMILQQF
Description: To explore whether Compound 1-induced protein degradation also interfered with the DNA binding ability of MCM2, HI 975 cells were synchronized using a double thymidine block followed by release with DMSO or compound 1 treatment for 3 to 9 hours. Exemplary results are shown in Panel (D) of FIG. 3. Then, the cells were harvested to obtain the chromatin-bound fraction, and MCM2 was detected by immunoblotting.

[12] = system: Staphylococcus haemolyticus; test: MIC, broth micro dilution method; format: cell-based
[13] = system: Acinetobacter baumannii; test: MIC, broth micro dilution method; format: cell-based
[14] = system: PC9/IR (human lung adenocarcinoma cells, EGFR del 19 mutation but resistant to gefitinib); test: SRB cytotoxicity assay, PC9/IR; conditions: 72 h
[15] = system: H1975 cell line; test: Sulforhodamine B colorimetric (SRB) assay, H1975; conditions: Homo sapiens, NCI-H1975, 72 h
[16] = system: Streptococcus infantarius subsp. coli; test: MIC, broth micro dilution method; format: cell-based; conditions: strain ATCC BAA-103, S. bovis
[17] = system: MCM complex (MCM2-MCM7); test: Immunoblotting of MCM complex protein expression in H1975 cell lysates; format: cell-based, human
Description: To evaluate the effects of Compound 1 on modulating the expression of different MCM protein components, immunoblotting of DMSO or compound 1-treated (at 140 nM) H1975 cell lysates was performed. Exemplary results are shown in Panels (A)-(C) of FIG. 3. H1975 cell were treated with DMSO and compound 1 (140 nM). Compound 1-treated H1975 cells were harvested at 24 hours, 48 hours, and 72 hours, and the protein expression levels of MCM complex were analyzed by immunoblotting. […] (Panel (A) of FIG. 3.).
To evaluate the effects of Compound 1 on triggering MCM2, MCM6, and MCM7 degradation through transcriptional or post-translational regulation, compound 1-treated H1975 cells were harvested at 48 hours with or without 10 μM MG132 treatment for 12 hours; and the protein expression levels of MCM2/6/7 were examined by immunoblotting. […] It was observed that MG132 proteasome inhibitor may reverse the compound 1 effects on MCM2/6/7 protein expression levels.

[18] = system: Staphylococcus lugdunensis; test: MIC, broth micro dilution method; format: cell-based; conditions: clinical isolate; for MIC: Staphylococcus lugdunensis, strain NTUH-4179, methicillin-resistant
[19] = strain NTUH-6767, methicillin-resistant

`Cc1oc2c(c1C(=O)NCCCn1ccnc1)C(=O)c1ccccc1C2=O` [Compound 1, N-(3-(1H-Imidazol-1-yl)propyl)-2-methyl-4,9-dioxo-4,9-dihydronaphtho [2,3-b]furan-3-carboxamide] showed an MIC ([1]; read-out: MIC (μg/ml) 100%, strain ATCC12228, methicillin-susceptible) of 2 µg/mL (≈ 5.5 µM), an MIC ([1]; read-out: MIC (μg/ml) 100%, strain ATCC35984, methicillin-resistant) of 1 µg/mL (≈ 2.75 µM) and an MIC ([1]; strain ATCC12228, methicillin-susceptible, read-out: MIC (μg/ml) 50%) of 0.5 µg/mL (≈ 1.38 µM). The MIC ([1]; strain ATCC35984, methicillin-resistant, read-out: MIC (μg/ml) 50%) was 0.25 µg/mL (≈ 0.688 µM), the MIC ([2]; read-out: MIC (μg/ml) 100%) was 8 µg/mL (≈ 22 µM) and the MIC ([2]; read-out: MIC (μg/ml) 50%) was 4 µg/mL (≈ 11 µM). The MIC ([3]; read-out: MIC (μg/ml) 100%, strain ATCC19434) was 16 µg/mL (≈ 44 µM), the MIC ([3]; strain ATCC19434, read-out: MIC (μg/ml) 50%) was 2 µg/mL (≈ 5.5 µM) and the MIC ([4]; read-out: MIC (μg/ml) 100%, strain ATCC27853, gram negative) was > 32 µg/mL. For the same molecule, the MIC ([4]; strain ATCC27853, gram negative, read-out: MIC (μg/ml) 50%) was > 32 µg/mL, the MIC ([5]; read-out: MIC (μg/ml) 100%) was 4 µg/mL (≈ 11 µM) and the MIC ([5]; read-out: MIC (μg/ml) 50%) was 2 µg/mL (≈ 5.5 µM). It also gave a viability at 10 µM [6] of 13.7%, a viability at 10 µM [7] of 4.2% and a viability at 10 µM [8] of 6%. For the same molecule, the MIC ([9]; read-out: MIC (μg/ml) 100%, strain ATCC700603, gram negative) was > 32 µg/mL, the MIC ([9]; strain ATCC700603, gram negative, read-out: MIC (μg/ml) 50%) was > 32 µg/mL and the “antimicrobial activity against all the MRSA strains” value ([10]; 5 μg concentration, disc diffusion) was “showed antimicrobial activity”. For the same molecule, the “antibacterial activity against MRSA as compared to ciprofloxacin” value ([10]; MRSA) was “stronger antibacterial activity”, the zone of inhibition at 5 µg/disc ([10]; disc diffusion, read-out: average diameter of the inhibition zone) was 25.5 mm and the zone of inhibition at 5 µg/disc ([10]; strain MRSA14979, read-out: Inhibition zone (mm)) was 25 mm. It also gave a zone of inhibition at 5 µg/disc ([10]; strain MRSA15211, read-out: Inhibition zone (mm)) of 26 mm, a zone of inhibition at 5 µg/disc ([10]; strain NTUH-104-2, MRSA (SCCmec VT, ST45), read-out: Inhibition zone (mm)) of 24 mm and a zone of inhibition at 5 µg/disc ([10]; strain NTUH-2102, MRSA (SCCmec II, ST5, FA-S), read-out: Inhibition zone (mm)) of 26 mm. It also gave a zone of inhibition at 5 µg/disc ([10]; strain NTUH-4578, MRSA (SCCmec IV, ST59), read-out: Inhibition zone (mm)) of 27 mm, a zone of inhibition at 5 µg/disc ([10]; strain NTUH-9383, MRSA (SCCmec III, ST239, FA-R), read-out: Inhibition zone (mm)) of 29 mm and a zone of inhibition at 5 µg/disc ([10]; strain PM1, MRSA (SCCmec VT, ST59), read-out: Inhibition zone (mm)) of 25 mm. It also gave a zone of inhibition at 5 µg/disc ([10]; strain SA10451, read-out: Inhibition zone (mm)) of 24 mm, a zone of inhibition at 5 µg/disc ([10]; strain SA10780, read-out: Inhibition zone (mm)) of 25 mm and a zone of inhibition at 5 µg/disc ([10]; strain SAI 1863, read-out: Inhibition zone (mm)) of 25 mm. The zone of inhibition at 5 µg/disc ([10]; ATCC 25923 / MRSA / MSSA, strain ATCC25923, MSSA, read-out: Inhibition zone (mm)) was 26 mm, the “chromatin-bound form of MCM2 vs DMSO control” value [11] was “significantly reduced” and the MIC ([12]; read-out: MIC (μg/ml) 100%, strain ATCC29970, methicillin-susceptible) was 4 µg/mL (≈ 11 µM). For the same molecule, the MIC ([12]; strain ATCC29970, methicillin-susceptible, read-out: MIC (μg/ml) 50%) was 2 µg/mL (≈ 5.5 µM), the MIC ([13]; read-out: MIC (μg/ml) 100%, strain ATCC19606, gram negative) was > 32 µg/mL and the MIC ([13]; strain ATCC19606, gram negative, read-out: MIC (μg/ml) 50%) was > 32 µg/mL. For the same molecule, the IC50 [14] was 48 nM, the IC50 ([15]; H1975, 72 h) was 77 nM and the IC50 ([15]; H1975 cell line, SRB assay, 72 hours) was 77 to 247 nM. For the same molecule, the MIC ([16]; read-out: MIC (μg/ml) 100%) was 4 µg/mL (≈ 11 µM), the MIC ([16]; read-out: MIC (μg/ml) 50%) was 2 µg/mL (≈ 5.5 µM) and the “expression of MCM3, MCM4, or MCM5” value ([17]; H1975, 140 nM, 24, 48, 72 hours) was “lower only at 72 hours”. For the same molecule, the “expression levels of MCM2, MCM6, and MCM7” value ([17]; H1975, 140 nM, 24 hour and 72 hour) was “significantly decreased”, the “MCM protein levels and messenger RNA levels” value ([17]; H1975, 24 hours) was “substantial decrease in MCM protein levels without a change in their messenger RNA levels” and the MIC ([18]; read-out: MIC (μg/ml) 100%) was 4 µg/mL (≈ 11 µM). The MIC ([18]; read-out: MIC (μg/ml) 50%) was 0.5 µg/mL (≈ 1.38 µM), the “MIC (μg/ml) 50%” value [18, 19] was 0.5 µg/mL (≈ 1.38 µM) and the “MIC (μg/ml) 100%” value [18, 19] was 4 µg/mL (≈ 11 µM).
